Usually GI50 stands for the concentration at which growth is held to half of that of the control.

Among the test systems are MDA-MB-435; 786-0; IGROV-1; SK-OV-3; Malme-3M; SNB-19; OVCAR-4; HCT-15; OVCAR-8; NCI-H522; SR; MDA-N; NCI-H23; OVCAR-3; COLO 205; T47D; DU-145; HCT-116; UO-31; SN12C.
Holding throughout (assay): DTP human tumour cell line panel, 48 h

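How tested: cells in 96-well plates exposed to compound for 48 hours at five concentrations. GI50: concentration for 50% inhibition of growth.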 Calls of active or inactive are those of the source. No stated cut-off is given here; in the data, active = GI50 up to about 1.1 µM and inactive = higher.

In the case of `C=CCOC(=O)[C@@H]1C[C@@H](OC(C)(C)C)CN1C(=O)[C@@H]1[C@H]2OC(C)(C)O[C@H]2CN1C(=O)OCC1c2ccccc2-c2ccccc21`, the GI50 in the experiment on MDA-MB-435 was 17.2 µM (inactive); with 786-0, 5.46 µM (inactive); in the experiment on IGROV-1 it was 17 µM (inactive); with SK-OV-3, 17.2 µM (inactive); in the experiment on Malme-3M, 18.2 µM (inactive); with SNB-19, 16.9 µM (inactive). Further, the GI50 in the experiment on OVCAR-4 is 17.2 µM (inactive); in the experiment with HCT-15, 11.4 µM; in the experiment with OVCAR-8, 5.87 µM (inactive); with NCI-H522, 0.383 µM (active); with SR, 8.05 µM (inactive); in the experiment with MDA-N, 18.1 µM (inactive). The GI50 with NCI-H23 is 17.6 µM (inactive); with OVCAR-3, 17.9 µM (inactive); with COLO 205 it was 18.1 µM (inactive); with T47D, 19.4 µM (inactive); in the experiment on DU-145, 3.45 µM (inactive); in the experiment with HCT-116, 17.4 µM (inactive). Moreover, the GI50 in the experiment on UO-31 was 0.15 µM (active); with SN12C it was 17 µM (inactive).

In the case of `CS(=O)(=O)Nc1ccc2ccccc2c1`, the GI50 in the experiment with MDA-MB-435, in the experiment on 786-0, in the experiment on IGROV-1, in the experiment on SK-OV-3, in the experiment with Malme-3M and in the experiment on SNB-19 was > 100 µM (inactive) throughout. Further, the GI50 with OVCAR-4 was > 100 µM (inactive); in the experiment with HCT-15, greater than 100 µM; in the experiment with OVCAR-8, > 100 µM (inactive); with NCI-H522, > 100 µM (inactive); with SR it was > 100 µM (inactive); in the experiment with MDA-N, > 100 µM (inactive). Further, the GI50 in the experiment on NCI-H23, with OVCAR-3, in the experiment with COLO 205, in the experiment with T47D, with DU-145 and in the experiment on HCT-116 was > 100 µM (inactive) each time. Further, the figures for the GI50 with UO-31 and in the experiment with SN12C were 21.1 µM (inactive) and > 100 µM (inactive), respectively.

For the molecule `O=c1c2ccccc2c2ccccc2c(=O)n1Cc1ccc2c(c1)OCO2`, the GI50 with MDA-MB-435 is 6.17 µM (inactive); with 786-0, 27 µM (inactive); in the experiment with IGROV-1, 8.51 µM (inactive); in the experiment with SK-OV-3, 41.4 µM (inactive); in the experiment with Malme-3M it was 67.9 µM (inactive); with SNB-19 it was 52.1 µM (inactive). In addition, the GI50 in the experiment on OVCAR-4 is > 67.3 µM (inactive); with HCT-15, 17 µM; in the experiment on OVCAR-8, 45.7 µM (inactive); in the experiment with NCI-H522, 30.8 µM (inactive); with SR, 4.91 µM (inactive); with MDA-N it was 10.1 µM (inactive). For the same molecule, the GI50 in the experiment with NCI-H23 was 24.7 µM (inactive); in the experiment on OVCAR-3 it was 24.6 µM (inactive); with COLO 205 it was 34 µM (inactive); in the experiment on T47D, 39.9 µM (inactive); in the experiment on DU-145, 49.9 µM (inactive); with HCT-116, 19.1 µM (inactive). The figures for the GI50 in the experiment with UO-31 and in the experiment with SN12C were 49.5 µM (inactive) and 37.5 µM (inactive), respectively.

Take `COC(=O)[C@]1(c2cc3ccccc3n2S(=O)(=O)c2ccccc2)CC2CN(C(C)=O)C1CC2=O` (stereo not given in full): the GI50 was 2.34 µM (inactive) in the experiment on MDA-MB-435; 1.28 µM (inactive) with 786-0; 2.57 µM (inactive) in the experiment on IGROV-1; 8.13 µM (inactive) in the experiment with SK-OV-3; 2.77 µM (inactive) in the experiment on Malme-3M; 3.26 µM (inactive) in the experiment with SNB-19. The GI50 is 3.58 µM (inactive) in the experiment on OVCAR-4; 2.48 µM in the experiment with HCT-15; 3.43 µM (inactive) with OVCAR-8; 1.75 µM (inactive) in the experiment with NCI-H522; 1.59 µM (inactive) in the experiment with SR; 2.79 µM (inactive) in the experiment with MDA-N. For the same molecule, the GI50 was 3.1 µM (inactive) with NCI-H23; 1.99 µM (inactive) with OVCAR-3; 2.42 µM (inactive) with COLO 205; 2.16 µM (inactive) in the experiment with T47D; 3.46 µM (inactive) in the experiment with DU-145; 1.89 µM (inactive) in the experiment on HCT-116. In addition, the GI50 in the experiment on UO-31 was 1.82 µM (inactive); in the experiment with SN12C, 2.68 µM (inactive).

On to `COC(=O)Nc1nc2cc(S(=O)(=O)Nc3ccccn3)ccc2[nH]1`, for which the GI50 in the experiment on MDA-MB-435 is 14.1 µM (inactive); in the experiment with 786-0, 49.8 µM (inactive); in the experiment on IGROV-1 it was 27.9 µM (inactive); in the experiment with SK-OV-3, 44.5 µM (inactive); with Malme-3M, 58.5 µM (inactive); with SNB-19 it was 64.4 µM (inactive). Moreover, the GI50 is 54.1 µM (inactive) in the experiment on OVCAR-4; 19.8 µM with HCT-15; 46.5 µM (inactive) in the experiment on OVCAR-8; 45.2 µM (inactive) in the experiment on NCI-H522; 21.1 µM (inactive) in the experiment with SR; 20.7 µM (inactive) in the experiment on MDA-N. The GI50 in the experiment with NCI-H23 is 50.1 µM (inactive); in the experiment on OVCAR-3, 32.4 µM (inactive); in the experiment on COLO 205, 32.7 µM (inactive); with T47D, 44.2 µM (inactive); with DU-145, 71.1 µM (inactive); with HCT-116, 49.9 µM (inactive). The GI50 was 76 µM (inactive) in the experiment with UO-31 and 92 µM (inactive) in the experiment with SN12C.

Regarding `N#Cc1cc([N+](=O)[O-])ccc1NC(=O)/C(=N\NC(=O)c1ccncc1)C(c1cnc2ccc([N+](=O)[O-])cc2n1)[N+](=O)[O-]` (stereo not given), the GI50 in the experiment on MDA-MB-435 was 1.03 µM (active); with 786-0, 2.44 µM (inactive); with IGROV-1, 3.78 µM (inactive); in the experiment with SK-OV-3 it was 8.02 µM (inactive); with Malme-3M, 1.31 µM (inactive); in the experiment with SNB-19, 2.83 µM (inactive). In addition, the GI50 in the experiment with OVCAR-4 was 2.09 µM (inactive); with HCT-15, 2.03 µM; with OVCAR-8, 3.1 µM (inactive); in the experiment on NCI-H522, 1.8 µM (inactive); with SR, 4.24 µM (inactive); with MDA-N it was 0.512 µM (active). Further, the GI50 in the experiment on NCI-H23 is 0.91 µM (active); in the experiment with OVCAR-3, 1.64 µM (inactive); with COLO 205, 5.69 µM (inactive); in the experiment on T47D, 3.37 µM (inactive); in the experiment on DU-145, 5.64 µM (inactive); in the experiment on HCT-116 it was 2.43 µM (inactive). Moreover, the GI50 in the experiment with UO-31 is 2.31 µM (inactive); with SN12C, 1.85 µM (inactive).

As to `CC1=NN(c2ccc(S(=O)(=O)O)cc2)C2(C1)C(Cl)C(=O)N2c1nc2ccccc2s1` (stereo not given), the GI50 with MDA-MB-435, with 786-0, in the experiment with IGROV-1, with SK-OV-3, with Malme-3M and in the experiment on SNB-19 was > 100 µM (inactive) throughout. Also, the GI50 with OVCAR-4 is > 100 µM (inactive); with HCT-15 it was greater than 100 µM; in the experiment on OVCAR-8, > 100 µM (inactive); in the experiment with NCI-H522 it was > 100 µM (inactive); in the experiment with SR, > 100 µM (inactive); with MDA-N, > 100 µM (inactive). Moreover, the GI50 in the experiment with NCI-H23 is > 100 µM (inactive); in the experiment on OVCAR-3 it was 68.4 µM (inactive); in the experiment on COLO 205 it was > 100 µM (inactive); with T47D, 59.8 µM (inactive); in the experiment with DU-145 it was > 100 µM (inactive); in the experiment on HCT-116 it was > 100 µM (inactive). The GI50 in the experiment on UO-31 and in the experiment on SN12C was > 100 µM (inactive) throughout.

For the origin of these results see ChEMBL document CHEMBL1201862, “PubChem BioAssay data set” (2004).
